One may read the melting point as the temperature of the solid-liquid transition. For the molecule `O=C(O)c1cc2c(-c3ccccc3)n[nH]c2s1` [Example 1, 3-phenyl-1H-thieno[2,3-c]pyrazole-5-carboxylic acid], the melting point worked out at 142 °C.

Source of the values: patent publication US20050026984A1, “Substituted thieno [2,3-c] pyrazoles and their use as medicinal products” (Aventis Pharma S.A., priority 2003, published 2005).
